{"source": "paper PMC6940745", "about": "(International Journal of Molecular Sciences, 2019)", "key": {"OP1R": {"biological_target": "T1, OP1R (Homo sapiens, UniProt P41143)", "T1 construct": "host or cells: CHO-K1 (membrane preparations)", "test": "OP1R (delta opioid) activation, GTPγS scintillation proximity assay", "assay_type": "biochemical", "settings": "eight concentrations, 0.01 to 100,000 nM", "protocol": "(§1) Melatonin (MT1R and MT2R) and opioid receptor (OP1R, OP2R, and OP3R, corresponding to human delta, kappa, and mu opioid receptors) activation assays were performed by means of GTPγS scintillation proximity assays. For agonist testing, membrane preparations from CHO-K1 cells expressing each receptor (EuroscreenFast, Gosselies, Belgium) were mixed with guanosine diphosphate (GDP) (v/v). In parallel, GTPγ[^35S] (PerkinElmer, NEG030X, 0.1 nM final assay concentration) was mixed with PVT-WGA beads (Perkin Elmer, RPNQ001, 0.5 mg/well final assay density) (v/v) just before starting the reaction. The following reagents were then successively added in the wells of an Optiplate (Perkin Elmer): A total of 50 µL of test or reference ligand diluted in assay buffer, 10 µL of assay buffer (20 mM HEPES pH 7.4; 100–200 mM NaCl, 10 µg/mL saponin, MgCl2 at optimized concentration for the specific receptor, 0%–0.1% BSA), 20 µL of the membranes: GDP mix, and 20 µL of the GTPγ[^35S]: Beads mix. The plates were covered with a top seal, mixed on an orbital shaker for 2 min, and then incubated for 1 h at room temperature. Then the plates were centrifuged for 10 min at 2000 rpm, incubated at room temperature for 1 h, and counted for 1 min/well with a PerkinElmer TopCount™ reader."}, "MC4R": {"biological_target": "T2, MC4R (Homo sapiens, UniProt P32245)", "T2 construct": "host or cells: CHO-K1", "test": "MC4R activation, cAMP HTRF assay in CHO-K1 cells", "assay_type": "cell-based", "settings": "eight concentrations, 0.01 to 100,000 nM", "protocol": "(§2) MCR-activation assays were performed by means of a cAMP HTRF (homogeneous time resolved fluorescence) assay for Gs-coupled receptors (cAMP Gs dynamic kit, Cisbio bioassays, 62AM4PEC). CHO-K1 cells expressing human recombinant MC1 receptor (EuroscreenFast, Gosselies, Belgium) (or MC2R, MC3R, MC4R, MC5R) were grown prior to the test in media without antibiotic. They were detached by gentle flushing with PBS-EDTA (5 mM EDTA), recovered by centrifugation, and resuspended in assay buffer (5 mM KCl, 1.25 mM MgSO4, 124 mM NaCl, 25 mM HEPES, 13.3 mM Glucose, 1.25 mM KH2PO4, 1.45 mM CaCl2, 0.5 g/L BSA, supplemented with 1 mM IBMX). Dose response curves were performed in parallel with the reference compounds. For agonist test (96-well), 12 µL of cells were mixed with 12 µL of the test compound diluted at increasing concentrations in assay buffer, and then incubated for 30 min at room temperature. After addition of the lysis buffer and 1 h incubation, fluorescence signal was measured, according to the manufacturer’s specifications, with the homogeneous time resolved fluorescence (HTRF) kit."}, "MT2R": {"biological_target": "T3, MT2R (Homo sapiens, UniProt P49286)", "T3 construct": "host or cells: CHO-K1 (membrane preparations)", "test": "MT2R activation, GTPγS scintillation proximity assay on CHO-K1 membranes", "assay_type": "biochemical", "settings": "eight concentrations, 0.01 to 100,000 nM", "protocol": "as §1"}, "TYR": {"system": "TYR", "test": "TYR protein expression in human skin ex vivo (immunohistochemistry)", "assay_type": "cell-based", "settings": "topical 30, 100 and 200 µM, six days; p = 0.06", "protocol": "Following declaration of Helsinki principles (DoH-Oct2013, World Medical Association, Ferney-Voltaire, France), human skin samples were obtained from elective plastic surgery after informed consent was obtained. For the two experiments shown in Figure 2, Figure 3 and Figure 4, we had one person with an individual topology angle (ITA°) of 18, and one person with an ITA° of 39 [69]. The skin samples were cut in pieces of 8 × 3 mm and cultured up to day 6. Skin samples were cultured in an air–liquid interface in a perforated ring of stainless steel in contact with culture medium (modified Williams’ E medium). The culture medium was renewed every three days (i.e., day 0–3). Compounds were added daily in DMSO at 4 µL volume. At day 6, the skin samples were fixed in formalin, embedded in paraplast, and cut at the microtome for histochemical staining and consequent image analysis. Six skin biopsies were used for each single treatment.\nTwelve skin sections from the ex vivo melanogenesis experiment above were immunoassayed with the selected antibodies (TYR, Thermo Scientific #MS-800-P0 (Thermo Scientific, Waltham, MA, USA); TYRP-1, Covance #SIG-38150 (Covance Inc., Princeton, NJ, USA), MITF, Abcam #ab80651 (Abcam plc, Cambridge, UK). The number of positive cells within the epidermis was counted and the value was normalized upon the length of the basal lamina, thus obtaining a score. […]"}, "human 5-HT2AR": {"biological_target": "human 5-HT2AR (Homo sapiens, UniProt P28223)", "sequence (P28223 whole entry)": "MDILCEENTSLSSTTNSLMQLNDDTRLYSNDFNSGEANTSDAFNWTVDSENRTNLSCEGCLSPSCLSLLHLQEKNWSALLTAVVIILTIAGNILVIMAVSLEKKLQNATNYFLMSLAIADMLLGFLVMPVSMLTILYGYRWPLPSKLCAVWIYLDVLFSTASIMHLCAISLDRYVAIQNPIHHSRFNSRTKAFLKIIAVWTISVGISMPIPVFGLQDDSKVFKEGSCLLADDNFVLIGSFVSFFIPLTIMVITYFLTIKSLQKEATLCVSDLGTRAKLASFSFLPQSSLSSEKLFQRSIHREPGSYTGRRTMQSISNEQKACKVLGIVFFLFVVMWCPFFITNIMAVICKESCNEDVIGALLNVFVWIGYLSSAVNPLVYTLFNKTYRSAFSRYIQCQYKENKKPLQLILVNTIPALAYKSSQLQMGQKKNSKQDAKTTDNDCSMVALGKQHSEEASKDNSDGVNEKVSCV", "test": "5-HT2AR activation, Aequorin assay", "assay_type": "cell-based", "settings": "eight concentrations, 0.01 to 100,000 nM", "protocol": "(§3) Melanin-concentrating hormone receptor (MCHR), endothelin-1 receptor (ETBR), and serotonin-receptor (5-HT2AR) assays were performed by means of Aequorin assays. Recombinant cells co-expressing human MCH1R, MCH2R, ETBR, or 5-HT2AR and mitochondrial apoaequorin (MCH1R, MCH2R and 5-HT2AR cells also co-express recombinant Gα16 protein) (EuroscreenFast, Gosselies, Belgium), grown 18 h prior to the test in media without antibiotics, were detached by gentle flushing with PBS-EDTA (5 mM EDTA), recovered by centrifugation, and resuspended in assay buffer (DMEM/HAM’s F12 with HEPES + 0.1% BSA protease free). Cells were incubated under agitation at room temperature for at least 4 h with Coelenterazine h (Promega, X300X, 0.5 µM final concentration). Dose response curves with the reference compounds were performed before testing the compounds. For agonist testing, 50 µL of cell suspension was injected on 50 µL of test compound or reference agonist diluted in assay buffer and plated in a 96-well plate. The resulting emission of light was recorded using the Hamamatsu Functional Drug Screening System 6000 (FDSS 6000). […] Agonist activity of test compound was expressed as a percentage of the activity of the reference agonist at its EC100 concentration."}, "MC2R": {"biological_target": "T4, MC2R (Homo sapiens, UniProt Q01718)", "T4 construct": "host or cells: CHO-K1", "T4 sequence (Q01718 whole entry)": "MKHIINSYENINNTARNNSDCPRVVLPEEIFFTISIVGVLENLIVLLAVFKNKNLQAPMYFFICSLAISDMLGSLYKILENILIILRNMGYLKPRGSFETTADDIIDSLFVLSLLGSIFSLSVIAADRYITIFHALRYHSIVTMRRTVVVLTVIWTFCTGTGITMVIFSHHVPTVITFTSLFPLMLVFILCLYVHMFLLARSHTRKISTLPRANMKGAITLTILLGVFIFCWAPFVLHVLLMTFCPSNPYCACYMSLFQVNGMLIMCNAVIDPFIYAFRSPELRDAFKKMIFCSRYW", "T4 sequence (Q8TCY5 whole entry partner)": "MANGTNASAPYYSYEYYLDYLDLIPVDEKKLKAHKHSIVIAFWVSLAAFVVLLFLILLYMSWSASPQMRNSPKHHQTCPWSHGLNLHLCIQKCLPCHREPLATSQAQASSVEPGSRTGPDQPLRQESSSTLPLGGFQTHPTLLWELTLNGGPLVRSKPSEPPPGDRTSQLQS", "test": "MC2R activation, cAMP HTRF assay in CHO-K1 cells", "assay_type": "cell-based", "protocol": "as §2"}, "human MCH2R": {"biological_target": "human MCH2R (Homo sapiens, UniProt Q969V1)", "sequence (Q969V1 whole entry)": "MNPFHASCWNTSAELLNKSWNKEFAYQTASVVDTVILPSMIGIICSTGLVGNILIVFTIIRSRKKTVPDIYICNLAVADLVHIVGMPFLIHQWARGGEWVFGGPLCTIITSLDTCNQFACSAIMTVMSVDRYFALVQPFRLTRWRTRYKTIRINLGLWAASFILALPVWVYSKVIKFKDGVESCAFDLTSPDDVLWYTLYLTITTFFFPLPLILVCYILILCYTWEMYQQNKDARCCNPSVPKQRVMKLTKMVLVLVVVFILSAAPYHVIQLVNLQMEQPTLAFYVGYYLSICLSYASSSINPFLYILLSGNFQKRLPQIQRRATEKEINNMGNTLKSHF", "test": "MCH2R activation, Aequorin assay", "assay_type": "cell-based", "settings": "eight concentrations, 0.01 to 100,000 nM", "protocol": "as §3"}, "human MCH1R": {"biological_target": "human MCH1R (Homo sapiens, UniProt Q99705)", "sequence (Q99705 whole entry)": "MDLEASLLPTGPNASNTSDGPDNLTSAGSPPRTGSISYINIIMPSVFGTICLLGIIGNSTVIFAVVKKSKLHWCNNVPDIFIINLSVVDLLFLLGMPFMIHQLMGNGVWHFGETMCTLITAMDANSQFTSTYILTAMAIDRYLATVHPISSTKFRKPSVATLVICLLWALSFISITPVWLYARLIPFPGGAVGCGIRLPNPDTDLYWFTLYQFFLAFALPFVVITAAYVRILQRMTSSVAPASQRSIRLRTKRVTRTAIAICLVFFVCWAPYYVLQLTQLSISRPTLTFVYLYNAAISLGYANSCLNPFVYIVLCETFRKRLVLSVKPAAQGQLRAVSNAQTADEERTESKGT", "test": "MCH1R activation, Aequorin assay", "assay_type": "cell-based", "settings": "eight concentrations, 0.01 to 100,000 nM", "protocol": "as §3"}}, "note": "pEC50: −log10 of the molar value. Where a SMILES comes first, the peptide text is derived from it. [ ]: non-standard residue; d: D form. The star is where a group is joined. Bz = O=C(c1ccccc1)*; NPr2 = CCCN(CCC)*"}
{"smiles": "CCCN(CCC)C(=O)[C@@H](Cc1c[nH]c2ccccc12)NC(=O)[C@H](CCCNC(=N)N)NC(=O)[C@@H](Cc1ccccc1)NC(=O)[C@H](Cc1c[nH]cn1)NC(=O)CNC(=O)c1ccccc1", "note": "[Peptide 4] (Bz-GH[dF]R[dW]-NPr2)", "values": [{"measurement": "pEC50", "setting": "OP1R", "result": "< 4.00"}, {"measurement": "pEC50", "setting": "MC4R", "result": 6.87}, {"measurement": "pEC50", "setting": "MT2R", "result": "< 4.00"}, {"measurement": "Maximal induction of TYR protein expression vs vehicle", "setting": "TYR", "result": 44, "unit": "%"}, {"measurement": "pEC50", "setting": "human 5-HT2AR", "result": "< 4.00"}, {"measurement": "pEC50", "setting": "MC2R; eight concentrations, 0.01 to 100,000 nM", "result": "< 4.00"}, {"measurement": "Activation of MC2R", "setting": "MC2R; up to 100 µM", "result": "no significant activation"}, {"measurement": "pEC50", "setting": "human MCH2R", "result": "< 4.00"}, {"measurement": "pEC50", "setting": "human MCH1R", "result": "< 4.00"}]}
